Patent US12268682B2, “Anticancer drug FL118 formulation for treatment of human cancer” (CANGET BIOTEKPHARMA, LLC, priority 2019, dated 2025)

Columns and labels:
[1] = Storage and heat stability of FL118; format: physicochemical
[2] = tested on: UM9 cell line; assay: BLI-based cytotoxicity assay with CAR T-cells or CTL 3AB11 on UM9; format: cell-based, human
Source text: CD138-, BCMA- and CD38-specific CAR T-cells: All CAR T-cells with different specificities were generated with co-stimulatory domains 4-1BB, CD28, or CD28 supplemented with a separate 4-1BB ligand (28zBBL), with the technology as described previously (Kim J H, et al. PLoS One. 2011, 6:e18556; Drent E, et al. Clin Cancer Res. 2019, 25:4014-4025). CD138 CAR T-cells (nBT) were produced using single chain variable fragment (scFv) sequences of the published nBT062 monoclonal antibody (Ikeda H, et al. Clin Cancer Res. 2009, 15:4028-4037). BCMA CAR T-cells were produced using published scFv sequences derived from C11D5.3 monoclonal antibody (US2012/0082661 A1 (Shancer Z, et al. Antib Ther. 2018, 1:19-25) or from BCMA02 CAR (product name bb2121, WO 2016/094304 A2) (Raje N, et al. N Engl J Med. 2019, 380:1726-1737; Friedman K M, et al. Hum Gene Ther. 2018, 29:585-601). The generation and functional analysis of CD38 CAR T-cells with low (B1) or high (028) CD38-affinities has been described previously (Drent E, et al. Clin Cancer Res. 2019, 25:4014-4025; Drent E, et al. Mol Ther. 2017, 25:1946-1958). More detailed information on all CAR construct are listed in Table 1. CAR T-cells were tested 10-14 days after CAR transduction or frozen until testing. After thawing, CAR T-cells were cultured for 16 hours in 60 U/mL recombinant human IL-2 (R&D Systems)-containing culture medium (RPMI 1640 supplemented with heat-inactivated FBS (Sigma) and antibiotics), before using in experiments. Flow cytometry analysis, to determine the transduction efficiency and phenotypic profile of each CAR T-cell, was performed as previously described (Drent E, et al. Clin Cancer Res. 2019, 25:4014 4025; Drent E, et al. Mol Ther. 2017, 25:1946-1958) and illustrated in FIG. 10.
3AB11 was expanded using a feeder cell-cytokine mixture and cryopreserved until further use as described previously (Spaapen R, et al. Clin Cancer Res. 2007, 13:4009-4015).

[3] = tested on: primary MM cells; assay: Flow cytometry-based ex vivo assay using BMMNCs from MM patients; format: cell-based, human
Procedure: Flow cytometry-based […] assays using BMMNCs: Cryopreserved BMMNCs derived from MM patients were incubated on a monolayer of 2×10^4 BMMSCs for 16 till 24 hours and subsequently treated with FL118 ([…]) and/or, melphalan (5-10 μM/L), bortezomib (2-3 nmol/L) for 48 hours. Concerning immunotherapy, treatment included FL118 (10 or 100 nM) and/or daratumumab, or CAR T-cells for 24 hours. BMMNC samples contained sufficient numbers of functional effector cells to induce antibody-mediated plasma cell lysis. At the end of treatment, after addition of flow-count fluorospheres (Beckman Coulter), adherent cells were detached with Accutase, blocked with human immunoglobulin (100 μg/mL, Sanquin), and stained for CD38, CD138, CD45 (Beckman Coulter) and live/dead cell marker (LIVE/DEAD Fixable Near-111; Life Technologies) to determine absolute numbers of viable MM cells using flow cytometry. The percentage lysis was then calculated using the following formula: % lysis cells=1−absolute number of viable CD138^+ CD38^+ CD45^dim MM cells in treated wells/mean absolute number of viable CD138^+ CD38^+ CD45^dim MM cells in untreated wells×100%.

[4] = tested on: cancer cell growth; details: cited from earlier work
[5] = tested on: survivin, Mcl-1, XIAP and cIAP2; details: cited from earlier work
[6] = BALE/cj mice; cited from earlier work
[7] = X-ray powder diffractometer (XRPD) crystal versus amorphous status; format: physicochemical
Procedure: Crystal versus amorphous status analyses of FL118 versus the formulated FL118 product using X-ray powder diffractometer: The crystal or amorphous status of each formulated FL118-a type of CD complex powder is determined using X-ray powder diffractometer (XRPD). Specifically, about 5 mg samples of each formulated FL118-a type of CD complex powder are spread onto the center of Si-substrate (samples area will be 1 cm in diameter) for XRPD testing. Laboratory XRPD patterns for samples will be collected at 25° C. The diffraction data will be collected over the angular range of 2θ=3°-40° with a step size of 2θ=0.02° and accounting time of 0.12 s/step.

[8] = tested on: cisplatin-resistant pancreatic cancer cells; details: cited from earlier work
[9] = tested on: MM1.s cells
[10] = tested on: PDX tumors; details: in vivo; cited from earlier work
[11] = primary BMMNC samples, 48 hours

Compound: CC[C@@]1(O)C(=O)OCc2c1cc1n(c2=O)Cc2cc3cc4c(cc3nc2-1)OCO4 [FL118]
- stability at high temperature ([1]; 60-80° C., spray-dry process, at least a period of time): without any issues
- storage stability ([1]; before and/or after formulation, room temperature or 4° C.): highly stable
- BMMSC protective effect against CTL 3AB11 lysis ([2]; 24 hours): completely abrogated
- combination effect with CTL 3AB11 ([2]; Chou-Talalay): synergistic fashion
- combination index (CI) values, FL118 and CAR T-cells ([2]; Chou-Talalay, especially in the presence of BMMSCs): below 1
- BMMSC-mediated protection against CAR T-cells ([2]; combined with CAR T-cells, even at doses as low as 3 nM): effectively modulated
- lysis of MM-cells by FL118 alone ([2]; regardless of the presence of BMMSCs, 24 hours): dose-dependent lysis
- combination of FL118 with CAR T-cells, observed versus expected lysis ([3]; 10 nM FL118, BLISS model): synergistic fashion
- patient MM cell lysis by CAR T-cells in the presence of BMMSCs ([3]; 10 nM FL118, E:T ratio 1:1, 24 hours): significantly enhanced
- anti-MM activity of FL118 alone ([3]; 10 nM, 24 hours, patient-derived MM cells): no/minimal anti-MM activity
- BMMSC-mediated protection against daratumumab-induced MM cell lysis ([3]; 100 nM FL118, 10 μg/mL daratumumab, 24 hours): abrogated
- efficacy in RR patient samples compared to ND patient samples ([3]; 100 nmol/L, 24 hours, 12 RR and 15 ND): significantly more effective
- FL118-induced MM cell lysis ([3]; 100 nmol/L, 24 hours, in 15 of 27 patient samples): ≥ 20%
- interaction between FL118 and daratumumab in the presence of BMMSCs ([3]; observed versus expected lysis): synergistic
- combination effect with bortezomib (Bliss model) [3, 11]: additive effects
- combination effect with melphalan (Bliss model) [3, 11]: synergistic effects
- concentration range for inhibition of cancer cell growth [4]: high pM to low nM range
- inhibition of expression of survivin, Mcl-1, XIAP and cIAP2 [5]: selectively inhibits
- hematopoietic and biochemical toxicities [6]: very low
- crystal versus amorphous status [7]: crystal
- activity on cisplatin-resistant pancreatic cancer cells [8]: preferentially targets and kills
- spheroid formation of pancreatic cancer stem cells [8]: inhibits
- combination with anti-DR5 antibody Drozitumab, cell lysis ([9]; 24 hours, PBMC effectors): great synergistic activity
- microenvironment-induced immune resistance, combination with Drozitumab ([9]; presence of BMMSCs): reversed
- effect on PDX tumors resistant/non-sensitive to FL118 and gemcitabine, combination with gemcitabine [10]: eliminated the PDX tumors
- effect on PDX tumors, FL118 alone [10]: effectively eliminated PDX tumors
